The term IC50 denotes the concentration that inhibits the measured activity by half. A low value points to greater potency.

We go through 26 molecules from US9115143B2, “Substituted indole derivatives as gamma secretase modulators” (Janssen Pharmaceuticals, Inc., priority 2011, dated 2015).

Experiment [1] relates to Aβtotal. Put plainly: Screening for γ-secretase-modulating activity: Aβtotal in supernatant of SKNBE2 cells carrying hAPP 695 wild type (Alphalisa). Format: cell-based, human. Particulars: overnight incubation, Alphalisa on supernatant. Summed up:
(§1)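 SKNBE2 human neuroblastoma cells expressing wild-type hAPP 695 (10^4/well) were incubated overnight at 37 °C, 5% CO2 with compound at several concentrations. Supernatant Aβ42 and Aβtotal measured by AlphaLISA sandwich immunoassays; IC50 from 4-parameter fit of percent of untreated control versus log concentration.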

Experiment [2] concerns Aβ42. Put plainly: Screening for γ-secretase-modulating activity: Aβ42 in supernatant of SKNBE2 cells carrying hAPP 695 wild type (Alphalisa). Format: cell-based, human. Particulars: overnight incubation, Alphalisa on supernatant. A digest of the protocol:
as §1

[3] abbreviates: Homo sapiens, SKNBE2, SKNBE2 human neuroblastoma cells carrying hAPP 695 wild type.
The mark [4] stands for this setting: SKNBE2 human neuroblastoma cells carrying hAPP 695 wild type.

For the molecule `COc1c(C#N)ccc2[nH]c(-c3nc4n(n3)CCOC4c3cc(C(F)(F)F)ccc3F)cc12` (stereo not shown) [Compound 121, 2-[8-[2-fluoro-5-(trifluoromethyl)phenyl]-5,6-dihydro-8H-[1,2,4]triazolo[5,1-c][1,4]oxazin-2-yl]-4-methoxy-1H-indole-5-carbonitrile], the IC50 in experiment [1] (setting [3]) is more than 10 µM; in experiment [2] (setting [3]), 0.11 µM.

`COc1c(C#N)ccc2[nH]c(-c3cn4c(n3)C(c3c(C)cccc3F)OCC4)cc12` (stereo not shown) [Compound 124, 2-[8-(2-fluoro-6-methylphenyl)-5,6-dihydro-8H-imidazo[2,1-c][1,4]oxazin-2-yl]-4-methoxy-1H-indole-5-carbonitrile]: the half-inhibitory concentration (IC50) was more than 10 µM in experiment [1] (setting [3]) and 0.047 µM in experiment [2] (setting [4]).

`COc1c(C#N)ccc2[nH]c(-c3nc4n(n3)CCOC4c3c(F)cccc3C(F)(F)F)cc12` (stereo not shown) [Compound 125, 2-[8-[2-fluoro-6-(trifluoromethyl)phenyl]-5,6-dihydro-8H-[1,2,4]triazolo[5,1-c][1,4]oxazin-2-yl]-4-methoxy-1H-indole-5-carbonitrile]: the IC50 in experiment [1] (setting [3]) is more than 10 µM; in experiment [2] (setting [4]) it was 0.071 µM.

In the case of `COc1c(C#N)ccc2[nH]c(-c3cn4c(n3)C(c3c(F)cccc3C(F)(F)F)OCC4)cc12` (stereo not shown) [Compound 126, 2-[8-[2-fluoro-6-(trifluoromethyl)phenyl]-5,6-dihydro-8H-imidazo[2,1-c][1,4]oxazin-2-yl]-4-methoxy-1H-indole-5-carbonitrile], the IC50 is more than 10 µM in experiment [1] (setting [3]) and 0.055 µM in experiment [2] (setting [4]).

`COc1c(C#N)ccc2[nH]c(-c3nc4n(n3)CCOC4c3cccc(F)c3C)cc12` (stereo not shown) [Compound 127, 2-[8-(3-fluoro-2-methylphenyl)-5,6-dihydro-8H-[1,2,4]triazolo[5,1-c][1,4]oxazin-2-yl]-4-methoxy-1H-indole-5-carbonitrile]: the IC50 in experiment [1] (setting [3]) was more than 10 µM; in experiment [2] (setting [4]), 0.033 µM.

For `COc1c(C#N)ccc2[nH]c(-c3cn4c(n3)C(c3cc(C(F)(F)F)ccc3F)OCC4)cc12` (stereo not shown) [Compound 128, 2-[8-[2-fluoro-5-(trifluoromethyl)phenyl]-5,6-dihydro-8H-imidazo[2,1-c][1,4]oxazin-2-yl]-4-methoxy-1H-indole-5-carbonitrile], the IC50 in experiment [1] (setting [3]) was more than 10 µM; in experiment [2] (setting [4]), 0.06 µM.

As to `COc1c(C#N)ccc2[nH]c(-c3nc4n(n3)CCOC4c3c(C)cccc3F)cc12` (stereo not shown) [Compound 129, 2-[8-(2-fluoro-6-methylphenyl)-5,6-dihydro-8H-[1,2,4]triazolo[5,1-c][1,4]oxazin-2-yl]-4-methoxy-1H-indole-5-carbonitrile], the figures for the IC50 in experiment [1] (setting [3]) and in experiment [2] (setting [4]) were more than 10 µM and 0.046 µM, respectively.

Turning to `COc1c(C#N)ccc2[nH]c(-c3nc4n(n3)CCOC4c3ccccc3Cl)cc12` (stereo not shown) [Compound 130, 2-[8-(2-chlorophenyl)-5,6-dihydro-8H-[1,2,4]triazolo[5,1-c][1,4]oxazin-2-yl]-4-methoxy-1H-indole-5-carbonitrile], the IC50 was more than 10 µM in experiment [1] (setting [3]) and 0.079 µM in experiment [2] (setting [4]).

Regarding `COc1c(C#N)ccc2[nH]c(-c3nc4n(n3)CCOC4c3ccccc3Cl)cc12` (stereo not shown) [Compound 140, 2-[8-(2-chlorophenyl)-5,6-dihydro-8H-[1,2,4]triazolo[5,1-c][1,4]oxazin-2-yl]-4-methoxy-1H-indole-5-carbonitrile], the IC50 is more than 10 µM in experiment [1] (setting [4]) and 1.15 µM in experiment [2] (setting [4]).

With `COc1c(C#N)ccc2[nH]c(-c3cn4c(n3)C(c3ccc(F)c(Cl)c3)OCC4)cc12` (stereo not shown) [Compound 143, 2-[8-(3-chloro-4-fluorophenyl)-5,6-dihydro-8H-imidazo[2,1-c][1,4]oxazin-2-yl]-4-methoxy-1H-indole-5-carbonitrile], the concentration for half-maximal inhibition (IC50) was more than 10 µM in experiment [1] (setting [3]) and 0.186 µM in experiment [2] (setting [4]).

Regarding `COc1c(C#N)ccc2[nH]c(-c3nc4n(n3)CCOC4c3ccc(F)c(Cl)c3)cc12` (stereo not shown) [Compound 144, 2-[8-(3-chloro-4-fluorophenyl)-5,6-dihydro-8H-[1,2,4]triazolo[5,1-c][1,4]oxazin-2-yl]-4-methoxy-1H-indole-5-carbonitrile], the values for the concentration for half-maximal inhibition (IC50) in experiment [1] (setting [3]) and in experiment [2] (setting [4]) were more than 10 µM and 0.214 µM, respectively.

For the molecule `COCc1ccccc1C1OCCn2cc(-c3cc4c(OC)c(C#N)ccc4[nH]3)nc21` (stereo not shown) [Compound 145, 2-[5,6-dihydro-8-[2-(methoxymethyl)phenyl]-8H-imidazo[2,1-c][1,4]oxazin-2-yl]-4-methoxy-1H-indole-5-carbonitrile], the results for the IC50 in experiment [1] (setting [4]) and in experiment [2] (setting [4]) were more than 10 µM and 0.11 µM, respectively.

In the case of `COCc1ccccc1C1OCCn2cc(-c3cc4c(OC)c(C#N)ccc4[nH]3)nc21` (stereo not shown) [Compound 146, 2-[5,6-dihydro-8-[2-(methoxymethyl)phenyl]-8H-imidazo[2,1-c][1,4]oxazin-2-yl]-4-methoxy-1H-indole-5-carbonitrile], the IC50 in experiment [1] (setting [4]) was more than 10 µM; in experiment [2] (setting [4]) it was 6.17 µM.

`COc1c(C#N)ccc2[nH]c(-c3cn4c(n3)C(c3cc(F)ccc3C)OCC4)cc12` (stereo not shown) [Compound 151, 2-[8-(5-fluoro-2-methylphenyl)-5,6-dihydro-8H-imidazo[2,1-c][1,4]oxazin-2-yl]-4-methoxy-1H-indole-5-carbonitrile]: the IC50 in experiment [1] (setting [3]) is more than 10 µM; in experiment [2] (setting [4]) it was 0.054 µM.

In the case of `COc1c(C#N)ccc2[nH]c(-c3cn4c(n3)C(c3c(F)cccc3C(F)(F)F)OCC4)cc12` (stereo not shown) [Compound 152, 2-[8-[2-fluoro-6-(trifluoromethyl)phenyl]-5,6-dihydro-8H-imidazo[2,1-c][1,4]oxazin-2-yl]-4-methoxy-1H-indole-5-carbonitrile], the IC50 is more than 10 µM in experiment [1] (setting [4]) and 3.8 µM in experiment [2] (setting [4]).

In the case of `COc1c(C#N)ccc2[nH]c(-c3cn4c(n3)C(c3ccc(F)c(Cl)c3)OCC4)cc12` (stereo not shown) [Compound 155, 2-[8-(3-chloro-4-fluorophenyl)-5,6-dihydro-8H-imidazo[2,1-c][1,4]oxazin-2-yl]-4-methoxy-1H-indole-5-carbonitrile], the IC50 in experiment [1] (setting [4]) is more than 10 µM; in experiment [2] (setting [4]) it was 1.48 µM.

Turning to `COc1c(C#N)ccc2[nH]c(-c3nc4n(n3)CCOC4c3c(F)cccc3C(F)(F)F)cc12` (stereo not shown) [Compound 162, 2-[8-[2-fluoro-6-(trifluoromethyl)phenyl]-5,6-dihydro-8H-[1,2,4]triazolo[5,1-c][1,4]oxazin-2-yl]-4-methoxy-1H-indole-5-carbonitrile], the results for the IC50 in experiment [1] (setting [4]) and in experiment [2] (setting [4]) were more than 10 µM and 6.92 µM, respectively.

On to `COc1c(C#N)ccc2[nH]c(-c3nc4n(n3)CCOC4c3c(F)cccc3C(F)(F)F)cc12` (stereo not shown) [Compound 163, 2-[8-[2-fluoro-6-(trifluoromethyl)phenyl]-5,6-dihydro-8H-[1,2,4]triazolo[5,1-c][1,4]oxazin-2-yl]-4-methoxy-1H-indole-5-carbonitrile], for which the IC50 is more than 10 µM in experiment [1] (setting [4]) and 0.052 µM in experiment [2] (setting [4]).

`COc1c(C#N)ccc2[nH]c(-c3cn4c(n3)C(c3cc(C(F)(F)F)ccc3F)OCC4)cc12` (stereo not shown) [Compound 165, 2-[8-[2-fluoro-5-(trifluoromethyl)phenyl]-5,6-dihydro-8H-imidazo[2,1-c][1,4]oxazin-2-yl]-4-methoxy-1H-indole-5-carbonitrile]: the IC50 in experiment [1] (setting [4]) is more than 10 µM; in experiment [2] (setting [4]) it was 4.37 µM.

Turning to `Cc1cc(F)ccc1C1OCCn2nc(-c3cc4c(OC(C)C)c(C#N)ccc4[nH]3)nc21` (stereo not shown) [Compound 166, 2-[8-(4-fluoro-2-methylphenyl)-5,6-dihydro-8H-[1,2,4]triazolo[5,1-c][1,4]oxazin-2-yl]-4-(1-methylethoxy)-1H-indole-5-carbonitrile], the IC50 in experiment [1] (setting [3]) is more than 10 µM; in experiment [2] (setting [3]), 0.347 µM.

For `COCCOc1c(C#N)ccc2[nH]c(-c3cn4c(n3)C(c3ccc(F)cc3C)OCC4)cc12` (stereo not shown) [Compound 167, 2-[8-(4-fluoro-2-methylphenyl)-5,6-dihydro-8H-imidazo[2,1-c][1,4]oxazin-2-yl]-4-(2-methoxyethoxy)-1H-indole-5-carbonitrile], the results for the 50% inhibitory concentration (IC50) in experiment [1] (setting [3]) and in experiment [2] (setting [3]) were more than 10 µM and 0.257 µM, respectively.

On to `Cc1cc(F)ccc1C1OCCn2nc(-c3cc4c(OCC(F)F)c(C#N)ccc4[nH]3)nc21` (stereo not shown) [Compound 168, 4-(2,2-difluoroethoxy)-2-[8-(4-fluoro-2-methylphenyl)-5,6-dihydro-8H-[1,2,4]triazolo[5,1-c][1,4]oxazin-2-yl]-1H-indole-5-carbonitrile], for which the values for the half-maximal inhibitory concentration (IC50) in experiment [1] (setting [3]) and in experiment [2] (setting [3]) were more than 10 µM and 0.245 µM, respectively.

As for `CCOc1c(C#N)ccc2[nH]c(-c3nc4n(n3)CCOC4c3ccc(F)cc3C)cc12` (stereo not shown) [Compound 171, 4-ethoxy-2-[8-(4-fluoro-2-methylphenyl)-5,6-dihydro-8H-[1,2,4]triazolo[5,1-c][1,4]oxazin-2-yl]-1H-indole-5-carbonitrile], the IC50 is more than 10 µM in experiment [1] (setting [3]) and 0.151 µM in experiment [2] (setting [3]).

For `Cc1cc(F)ccc1C1CCCn2nc(-c3nc4cc(-n5cncc5C)ccc4[nH]3)nc21` (stereo not shown) [Compound 177, 8-(4-fluoro-2-methylphenyl)-5,6,7,8-tetrahydro-2-[5-(5-methyl-1H-imidazol-1-yl)-1H-benzimidazol-2-yl]-[1,2,4]triazolo[1,5-a]pyridine], the 50% inhibitory concentration (IC50) in experiment [1] (setting [3]) was more than 10 µM; in experiment [2] (setting [3]) it was 2.51 µM.

In the case of `Cc1cn(-c2ccc3[nH]c(-c4nc5n(n4)CCCC5c4ccc(F)cc4C)nc3c2)cn1` (stereo not shown) [Compound 179, 8-(4-fluoro-2-methylphenyl)-5,6,7,8-tetrahydro-2-[5-(4-methyl-1H-imidazol-1-yl)-1H-benzimidazol-2-yl]-[1,2,4]triazolo[1,5-a]pyridine], the IC50 in experiment [1] (setting [3]) is more than 10 µM; in experiment [2] (setting [4]), 0.407 µM.

Regarding `COc1c(C#N)ccc2[nH]c(-c3cn4c(n3)COCC4(C)c3cc(C(F)(F)F)ccc3F)cc12` (stereo not shown) [Compound 183, 2-[5-[2-fluoro-5-(trifluoromethyl)phenyl]-5,6-dihydro-5-methyl-8H-imidazo[2,1-c][1,4]oxazin-2-yl]-4-methoxy-1H-indole-5-carbonitrile], the IC50 in experiment [1] (setting [3]) was more than 10 µM; in experiment [2] (setting [3]), 2.88 µM.
